Laboratory results as given in patent US20260015325A1, “ALKOXY HETEROARYL- CARBOXAMIDE OR THIOAMIDE COMPOUNDS” (SYNGENTA CROP PROTECTION AG, priority 2022, published 2026).

Legend:
Assay type in all cases: in vivo
[1] = system: Myzus persicae (Green Peach Aphid); assay: Myzus persicae (Green Peach Aphid): feeding/contact activity, sunflower leaf discs; settings: foliar, 144 h, application rate of 200 ppm, mixed ages on sprayed sunflower leaf discs, 6 days after infestation, read-out: mortality
Description: Example B6: Myzus persicae (Green Peach Aphid): Feeding/Contact Activity
Sunflower leaf discs were placed onto agar in a 24-well microtiter plate and sprayed with aqueous test solutions prepared from 10′000 ppm DMSO stock solutions. After drying, the leaf discs were infested with an aphid population of mixed ages. The samples were assessed for mortality 6 days after infestation.

[2] = system: Myzus persicae (Green Peach Aphid); assay: Myzus persicae (Green Peach Aphid): systemic activity, pea seedlings; settings: 144 h, test rate of 24 ppm, systemic, roots of infested pea seedlings in test solution, 6 days, read-out: mortality
Description: Example B7: Myzus persicae (Green Peach Aphid). Systemic Activity
Roots of pea seedlings infested with an aphid population of mixed ages were placed directly into aqueous test solutions prepared from 10′000 DMSO stock solutions. The samples were assessed for mortality 6 days after placing seedlings into test solutions.

[3] = system: Myzus persicae (Green Peach Aphid); assay: Myzus persicae (Green Peach Aphid): intrinsic activity, sucrose solution; settings: 120 h, test rate of 12 ppm, intrinsic, mixed with sucrose solution under Parafilm, 5 days after infestation, read-out: mortality
Method in brief: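 Compounds from 10′000 ppm DMSO stocks mixed with sucrose solution in wells sealed with Parafilm; aphid-infested pea seedlings placed on the Parafilm and the assembly inverted so aphids feed through the membrane. Mortality assessed 5 days after infestation.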

[4] = system: Plutella xylostella (Diamond Back Moth); assay: Plutella xylostella (Diamond Back Moth), artificial diet; settings: 192 h, application rate of 200 ppm, eggs on treated artificial diet, 8 days after infestation, read-out: effect in at least one of the two categories (mortality or growth inhibition)
Description: Example B9: Plutella xylostella (Diamond Back Moth)
24-well microtiter plates with artificial diet were treated with aqueous test solutions prepared from 10′000 ppm DMSO stock solutions by pipetting. After drying, Plutella eggs were pipetted through a plastic stencil onto a gel blotting paper and the plate was closed with it. The samples were assessed for mortality and growth inhibition in comparison to untreated samples 8 days after infestation.

[5] = system: Tetranychus urticae (Two-Spotted Spider Mite); assay: whole plant or invertebrate; settings: foliar, 192 h, application rate of 200 ppm, mixed population (mobile stages) on sprayed bean leaf discs, 8 days after infestation, read-out: mortality
Description: Example B11: Tetranychus urticae (Two-Spotted Spider Mite): Feeding/Contact Activity
Bean leaf discs on agar in 24-well microtiter plates were sprayed with aqueous test solutions prepared from 10′000 ppm DMSO stock solutions. After drying the leaf discs were infested with a mite population of mixed ages. The samples were assessed for mortality on mixed population (mobile stages) 8 days after infestation.

[6] = system: Diabrotica balteata (Corn Root Worm); assay: whole plant or invertebrate; settings: 96 h, application rate of 200 ppm, L2 larvae on sprayed maize sprouts, 4 days after infestation, read-out: effect in at least one of the two categories (mortality or growth inhibition)
Description: Example B3: Diabrotica balteata (Corn Root Worm)
Maize sprouts placed onto an agar layer in 24-well microtiter plates were treated with aqueous test solutions prepared from 10′000 ppm DMSO stock solutions by spraying. After drying, the plates were infested with L2 larvae (6 to 10 per well). The samples were assessed for mortality and growth inhibition in comparison to untreated samples 4 days after infestation.

[7] = system: Bemisia tabaci (Cotton White Fly); assay: Bemisia tabaci (Cotton White Fly): feeding/contact activity, cotton leaf discs; settings: foliar, 144 h, application rate of 200 ppm, adult white flies on sprayed cotton leaf discs, 6 days after incubation, read-out: mortality
Description: Example B1: Bemisia tabaci (Cotton White Fly): Feeding/Contact Activity
Cotton leaf discs were placed on agar in 24-well microtiter plates and sprayed with aqueous test solutions prepared from 10′000 ppm DMSO stock solutions. After drying the leaf discs were infested with adult white flies. The samples were checked for mortality 6 days after incubation.

[8] = system: Frankliniella occidentalis (Western Flower Thrips); assay: Frankliniella occidentalis (Western Flower Thrips): feeding/contact activity, sunflower leaf discs; settings: foliar, 168 h, application rate of 200 ppm, mixed ages on sprayed sunflower leaf discs, 7 days after infestation
Description: Example B5: Frankliniella occidentalis (Western Flower Thrips): Feeding/Contact Activity
Sunflower leaf discs were placed on agar in 24-well microtiter plates and sprayed with aqueous test solutions prepared from […] stock solutions. After drying the leaf discs were infested with a Frankliniella population of mixed ages. The samples were assessed for mortality 7 days after infestation.

[9] = system: Euschistus heros (Neotropical Brown Stink Bug); assay: Euschistus heros (Neotropical Brown Stink Bug), soybean leaves; settings: 120 h, application rate of 200 ppm, N2 nymphs on sprayed soybean leaves, 5 days after infestation, read-out: effect in at least one of the two categories (mortality or growth inhibition)
Description: Example B4: Euschistus heros (Neotropical Brown Stink Bug)
Soybean leaves on agar in 24-well microtiter plates were sprayed with aqueous test solutions prepared from 10′000 ppm DMSO stock solutions. After drying the leaves were infested with N2 nymphs. The samples were assessed for mortality and growth inhibition in comparison to untreated samples 5 days after infestation.

[10] = system: Chilo suppressalis (Striped Rice Stemborer); assay: Chilo suppressalis (Striped Rice Stemborer), artificial diet; settings: 144 h, application rate of 200 ppm, L2 larvae on treated artificial diet, 6 days after infestation, read-out: control (at least one of mortality, anti-feedant effect, growth inhibition)
Description: Example B2: Chilo suppressalis (Striped Rice Stemborer)
24-well microtiter plates with artificial diet were treated with aqueous test solutions prepared from 10′000 ppm DMSO stock solutions by pipetting. After drying, the plates were infested with L2 larvae (6-8 per well). The samples were assessed for mortality, anti-feeding effect, and growth inhibition in comparison to untreated samples 6 days after infestation. Control of Chilo suppressalis by a test sample is given when at least one of the categories mortality, anti-feedant effect, and growth inhibition is higher than the untreated sample.

Spodoptera littoralis = Spodoptera littoralis (Egyptian Cotton Leaf Worm), cotton leaf discs; settings: foliar, 72 h, application rate of 200 ppm, L1 larvae on sprayed cotton leaf discs, 3 days after infestation, read-out: control (at least one of mortality, anti-feedant effect, growth inhibition)
Description: Example B10: Spodoptera littoralis (Eaytian Cotton Leaf Worm)
Cotton leaf discs were placed onto agar in 24-well microtiter plates and sprayed with aqueous test solutions prepared from 10′000 ppm DMSO stock solutions. After drying the leaf discs were infested with five L1 larvae. The samples were assessed for mortality, anti-feeding effect, and growth inhibition in comparison to untreated samples 3 days after infestation. Control of Spodoptera littoralis by a test sample is given when at least one of the categories mortality, anti-feedant effect, and growth inhibition is higher than the untreated sample.

C[C@@H](COc1cnc(Cl)c(C(=O)NC23CC(C2)C3)c1)NS(=O)(=O)C(F)(F)F [Compound P-5, N-(1-bicyclo[1.1.1]pentanyl)-2-chloro-5-[(2S)-2-(trifluoromethylsulfonylamino)propoxy]pyridine-3-carboxamide]
≥ 80%: mortality at 200 ppm [1] | mortality at 24 ppm [2] | mortality at 12 ppm [3] | percent effect (mortality or growth inhibition) at 200 ppm [4] | mortality at 200 ppm [5]

C[C@@H](COc1cnc(Cl)c(C(=O)Nc2ccc(C#N)cc2F)c1)NS(=O)(=O)C(F)(F)F [Compound P-22, 2-chloro-N-(4-cyano-2-fluoro-phenyl)-5-[(2S)-2-(trifluoromethylsulfonylamino)propoxy]pyridine-3-carboxamide]
≥ 80%: percent effect (mortality or growth inhibition) at 200 ppm [6] | mortality at 200 ppm [5]

CCN1OC[C@@H](NC(=O)c2cc(OC[C@H](C)NS(=O)(=O)C(F)(F)F)ncc2Br)C1=O [Compound P-84, 5-bromo-N-[(4R)-2-ethyl-3-oxo-isoxazolidin-4-yl]-2-[(2S)-2-(trifluoromethylsulfonylamino)propoxy]pyridine-4-carboxamide]
≥ 80%: percent effect (mortality or growth inhibition) at 200 ppm [6]

C[C@@H](COc1cnc(Cl)c(C(=O)NC2(C#N)CC2)c1)N(C)S(=O)(=O)C(F)(F)F [Compound P-7, 2-chloro-N-(1-cyanocyclopropyl)-5-[(2S)-2-[methyl(trifluoromethylsulfonyl)amino]propoxy]pyridine-3-carboxamide]
≥ 80%: mortality at 200 ppm [7] | percent effect (mortality or growth inhibition) at 200 ppm [6] | mortality at 200 ppm [8] | mortality at 24 ppm [2] | mortality at 12 ppm [3]

COCN([C@@H](C)COc1cnc(Cl)c(C(=O)NC2CC2)c1)S(=O)(=O)C(F)(F)F [Compound P-64, 2-chloro-N-cyclopropyl-5-[(2S)-2-[methoxymethyl(trifluoromethylsulfonyl)amino]propoxy]pyridine-3-carboxamide]
≥ 80%: mortality at 200 ppm [7] | percent effect (mortality or growth inhibition) at 200 ppm [6] | percent effect (mortality or growth inhibition) at 200 ppm [9] | mortality at 200 ppm [8] | mortality at 200 ppm [1] | mortality at 24 ppm [2] | mortality at 12 ppm [3] | mortality at 200 ppm [5]

C[C@@H](COc1cnc(Cl)c(C(=O)NC2(C#N)CC2)c1)NS(=O)(=O)C(F)(F)F [Compound P-2, 2-chloro-N-(1-cyanocyclopropyl)-5-[(2S)-2-(trifluoromethylsulfonylamino)propoxy]pyridine-3-carboxamide]
≥ 80%: mortality at 200 ppm [7] | percent control (mortality, anti-feedant effect or growth inhibition) at 200 ppm [10] | percent effect (mortality or growth inhibition) at 200 ppm [6] | percent effect (mortality or growth inhibition) at 200 ppm [9] | mortality at 200 ppm [8] | mortality at 200 ppm [1] | mortality at 24 ppm [2] | mortality at 12 ppm [3] | percent control (mortality, anti-feedant effect or growth inhibition) at 200 ppm (Spodoptera littoralis)

CCN1OC[C@@H](NC(=O)c2cc(OC[C@H](C)NS(=O)(=O)C(F)(F)F)cnc2Cl)C1=O [Compound P-65, 2-chloro-N-[(4R)-2-ethyl-3-oxo-isoxazolidin-4-yl]-5-[(2S)-2-(trifluoromethylsulfonylamino)propoxy]pyridine-3-carboxamide]
≥ 80%: percent control (mortality, anti-feedant effect or growth inhibition) at 200 ppm (Spodoptera littoralis) | mortality at 200 ppm [5]

COCN([C@@H](C)COc1cnc(Cl)c(C(=O)NCC(F)(F)F)c1)S(=O)(=O)C(F)(F)F [Compound P-63, 2-chloro-5-[(2S)-2-[methoxymethyl(trifluoromethylsulfonyl)amino]propoxy]-N-(2,2,2-trifluoroethyl)pyridine-3-carboxamide]
≥ 80%: mortality at 200 ppm [7] | percent control (mortality, anti-feedant effect or growth inhibition) at 200 ppm [10] | percent effect (mortality or growth inhibition) at 200 ppm [9] | mortality at 12 ppm [3] | mortality at 200 ppm [5]

C[C@@H](COc1cnc(Cl)c(C(=O)NC2CC2)c1)NS(=O)(=O)C(F)(F)F [Compound P-1, 2-chloro-N-cyclopropyl-5-[(2S)-2-(trifluoromethylsulfonylamino)propoxy]pyridine-3-carboxamide]
≥ 80%: mortality at 200 ppm [7] | percent effect (mortality or growth inhibition) at 200 ppm [6] | percent effect (mortality or growth inhibition) at 200 ppm [9] | mortality at 200 ppm [8] | mortality at 200 ppm [1] | mortality at 24 ppm [2] | mortality at 12 ppm [3] | percent effect (mortality or growth inhibition) at 200 ppm [4] | mortality at 200 ppm [5]

Cc1cc(F)ccc1NC(=O)c1cc(OC[C@H](C)NS(=O)(=O)C(F)(F)F)cnc1Cl [Compound P-60, 2-chloro-N-(4-fluoro-2-methyl-phenyl)-5-[(2S)-2-(trifluoromethylsulfonylamino)propoxy]pyridine-3-carboxamide]
≥ 80%: mortality at 12 ppm [3] | percent effect (mortality or growth inhibition) at 200 ppm [4] | percent control (mortality, anti-feedant effect or growth inhibition) at 200 ppm (Spodoptera littoralis) | mortality at 200 ppm [5]

C[C@@H](COc1cnc(Cl)c(C(=O)Nc2ccc(F)cc2F)c1)NS(=O)(=O)C(F)(F)F [Compound P-23, 2-chloro-N-(2,4-difluorophenyl)-5-[(2S)-2-(trifluoromethylsulfonylamino)propoxy]pyridine-3-carboxamide]
≥ 80%: mortality at 200 ppm [7] | mortality at 12 ppm [3] | percent effect (mortality or growth inhibition) at 200 ppm [4] | mortality at 200 ppm [5]
